Test results from the supplement of paper PMC12463676, “Small-molecule dissolution of stress granules by redox modulation benefits ALS models” (Nature Chemical Biology, 2025).

How the values were obtained:
potassium arsenate = compound: O=[As]([O-])(O)O.[K+] [potassium arsenate]; assay: thermal stability z-score vs DMSO; higher = more thermally stabilized by treatment; conditions: HeLa; arsenate concentration 1 mM
Experimental: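 Cellular thermal proteome profiling in HeLa cells treated with 1 mM arsenate for 1 h (DMSO pretreatment), heated to ten temperatures (37-66.3 °C). Soluble protein was quantified by TMT mass spectrometry relative to DMSO controls; the thermal stability score was transformed to a z-score; mean of n = 3 experiments.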

lipoamide = compound: NC(=O)CCCCC1CCSS1 [lipoamide]; assay: as above; conditions: HeLa, lipoamide concentration 100 µM
Experimental: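 Cellular thermal proteome profiling in HeLa cells. Cells were treated with 100 µM lipoamide for 1 h, with or without 1 mM arsenate for a further 1 h, then heated to ten temperatures (37-66.3 °C), and soluble protein was quantified by TMT mass spectrometry relative to 0.1% DMSO controls. The thermal stability score (sum of log2 fold changes minus the abundance score) was transformed to a z-score; mean of n = 3 experiments.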

[1] = arsenate co-treatment: 1 mM arsenate 1 h
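Further: each temperature applied for 3 min, abundance score taken as mean log2 fold change at the two lowest temperatures, z-score obtained by mean subtraction and division by SD.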

Chain of UniProt Q15057 (Q15057 whole entry): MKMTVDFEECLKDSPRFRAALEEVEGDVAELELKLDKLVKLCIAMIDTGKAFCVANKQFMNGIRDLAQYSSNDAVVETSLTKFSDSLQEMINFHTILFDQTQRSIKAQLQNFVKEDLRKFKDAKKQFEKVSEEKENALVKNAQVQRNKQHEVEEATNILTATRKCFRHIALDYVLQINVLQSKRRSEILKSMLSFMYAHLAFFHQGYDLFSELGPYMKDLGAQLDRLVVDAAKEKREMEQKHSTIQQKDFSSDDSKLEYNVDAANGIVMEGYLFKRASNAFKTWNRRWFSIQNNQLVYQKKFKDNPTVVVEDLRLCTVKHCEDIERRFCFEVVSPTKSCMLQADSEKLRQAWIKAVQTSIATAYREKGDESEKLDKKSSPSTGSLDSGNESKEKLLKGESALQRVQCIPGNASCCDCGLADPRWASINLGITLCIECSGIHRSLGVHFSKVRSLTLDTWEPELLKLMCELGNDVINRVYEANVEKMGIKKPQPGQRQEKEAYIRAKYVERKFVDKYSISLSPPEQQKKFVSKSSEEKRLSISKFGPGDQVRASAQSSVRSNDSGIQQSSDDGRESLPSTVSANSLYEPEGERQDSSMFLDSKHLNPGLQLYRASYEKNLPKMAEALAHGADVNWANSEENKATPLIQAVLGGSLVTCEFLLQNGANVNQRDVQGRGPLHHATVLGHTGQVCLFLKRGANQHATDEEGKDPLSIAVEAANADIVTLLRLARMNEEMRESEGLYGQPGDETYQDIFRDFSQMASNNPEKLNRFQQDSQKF
Chain of UniProt O95274 (O95274 whole entry): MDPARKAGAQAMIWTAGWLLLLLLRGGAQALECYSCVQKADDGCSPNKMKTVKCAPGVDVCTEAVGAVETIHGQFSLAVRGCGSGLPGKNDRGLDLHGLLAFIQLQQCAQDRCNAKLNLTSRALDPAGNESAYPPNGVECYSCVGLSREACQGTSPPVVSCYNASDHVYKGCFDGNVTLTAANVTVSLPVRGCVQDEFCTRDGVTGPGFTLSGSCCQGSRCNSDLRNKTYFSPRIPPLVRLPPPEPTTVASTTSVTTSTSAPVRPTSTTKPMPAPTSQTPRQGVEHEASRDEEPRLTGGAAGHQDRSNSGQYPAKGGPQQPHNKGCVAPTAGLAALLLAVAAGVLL
Chain of UniProt Q8IV48 (Q8IV48 whole entry): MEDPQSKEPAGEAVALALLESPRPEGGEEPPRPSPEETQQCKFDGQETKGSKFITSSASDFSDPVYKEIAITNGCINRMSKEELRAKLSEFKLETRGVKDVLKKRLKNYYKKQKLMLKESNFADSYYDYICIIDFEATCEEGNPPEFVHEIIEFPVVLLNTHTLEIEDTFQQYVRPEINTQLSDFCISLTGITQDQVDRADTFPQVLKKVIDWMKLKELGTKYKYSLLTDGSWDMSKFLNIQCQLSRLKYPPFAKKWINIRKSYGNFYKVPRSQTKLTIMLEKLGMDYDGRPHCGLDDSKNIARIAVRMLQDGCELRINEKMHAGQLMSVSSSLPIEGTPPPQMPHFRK
Chain of UniProt P53701 (P53701 whole entry): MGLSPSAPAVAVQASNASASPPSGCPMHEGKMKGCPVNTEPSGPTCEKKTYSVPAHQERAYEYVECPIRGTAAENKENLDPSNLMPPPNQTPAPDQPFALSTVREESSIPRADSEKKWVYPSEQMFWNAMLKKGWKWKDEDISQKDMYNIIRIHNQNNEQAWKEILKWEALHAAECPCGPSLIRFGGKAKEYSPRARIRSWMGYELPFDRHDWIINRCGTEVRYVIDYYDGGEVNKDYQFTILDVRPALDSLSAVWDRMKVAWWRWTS
Chain of UniProt O15381 (O15381 whole entry): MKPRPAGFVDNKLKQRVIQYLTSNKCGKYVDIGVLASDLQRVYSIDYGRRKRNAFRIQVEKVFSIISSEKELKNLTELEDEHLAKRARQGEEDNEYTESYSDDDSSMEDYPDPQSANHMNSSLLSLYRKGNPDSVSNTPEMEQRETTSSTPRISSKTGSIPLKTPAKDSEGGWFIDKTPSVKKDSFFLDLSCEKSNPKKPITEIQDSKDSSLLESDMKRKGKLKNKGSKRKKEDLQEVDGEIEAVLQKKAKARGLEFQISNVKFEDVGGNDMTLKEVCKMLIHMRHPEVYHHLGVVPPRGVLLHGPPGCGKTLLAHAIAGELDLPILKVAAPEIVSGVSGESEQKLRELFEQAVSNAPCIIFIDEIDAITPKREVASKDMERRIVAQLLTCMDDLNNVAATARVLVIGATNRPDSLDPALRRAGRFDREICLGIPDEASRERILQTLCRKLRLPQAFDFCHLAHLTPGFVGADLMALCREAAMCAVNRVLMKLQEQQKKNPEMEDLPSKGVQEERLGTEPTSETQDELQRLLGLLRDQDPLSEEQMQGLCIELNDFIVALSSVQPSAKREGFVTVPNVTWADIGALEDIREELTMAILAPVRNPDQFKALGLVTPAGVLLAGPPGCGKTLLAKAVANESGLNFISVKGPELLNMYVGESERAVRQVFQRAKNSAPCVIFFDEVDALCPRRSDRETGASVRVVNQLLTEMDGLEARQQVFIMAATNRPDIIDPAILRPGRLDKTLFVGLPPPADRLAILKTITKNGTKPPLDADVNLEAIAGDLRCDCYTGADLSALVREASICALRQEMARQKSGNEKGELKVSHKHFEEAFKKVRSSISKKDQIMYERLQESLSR
Chain of UniProt Q96I24 (Q96I24 whole entry): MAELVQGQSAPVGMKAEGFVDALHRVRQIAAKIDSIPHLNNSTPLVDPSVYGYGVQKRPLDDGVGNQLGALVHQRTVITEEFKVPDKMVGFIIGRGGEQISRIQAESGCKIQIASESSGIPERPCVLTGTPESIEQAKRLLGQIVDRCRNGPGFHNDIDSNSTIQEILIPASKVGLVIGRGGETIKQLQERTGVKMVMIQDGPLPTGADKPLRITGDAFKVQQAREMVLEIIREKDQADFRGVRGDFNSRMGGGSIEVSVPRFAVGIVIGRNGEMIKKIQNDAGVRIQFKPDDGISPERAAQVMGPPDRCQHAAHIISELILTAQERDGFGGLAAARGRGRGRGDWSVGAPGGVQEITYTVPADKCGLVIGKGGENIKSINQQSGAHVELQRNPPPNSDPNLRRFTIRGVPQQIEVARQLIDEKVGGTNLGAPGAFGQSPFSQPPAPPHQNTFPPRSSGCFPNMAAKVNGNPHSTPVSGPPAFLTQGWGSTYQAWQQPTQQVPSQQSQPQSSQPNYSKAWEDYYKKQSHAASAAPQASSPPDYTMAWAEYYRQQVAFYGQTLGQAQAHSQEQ
Chain of UniProt Q13495 (Q13495 whole entry): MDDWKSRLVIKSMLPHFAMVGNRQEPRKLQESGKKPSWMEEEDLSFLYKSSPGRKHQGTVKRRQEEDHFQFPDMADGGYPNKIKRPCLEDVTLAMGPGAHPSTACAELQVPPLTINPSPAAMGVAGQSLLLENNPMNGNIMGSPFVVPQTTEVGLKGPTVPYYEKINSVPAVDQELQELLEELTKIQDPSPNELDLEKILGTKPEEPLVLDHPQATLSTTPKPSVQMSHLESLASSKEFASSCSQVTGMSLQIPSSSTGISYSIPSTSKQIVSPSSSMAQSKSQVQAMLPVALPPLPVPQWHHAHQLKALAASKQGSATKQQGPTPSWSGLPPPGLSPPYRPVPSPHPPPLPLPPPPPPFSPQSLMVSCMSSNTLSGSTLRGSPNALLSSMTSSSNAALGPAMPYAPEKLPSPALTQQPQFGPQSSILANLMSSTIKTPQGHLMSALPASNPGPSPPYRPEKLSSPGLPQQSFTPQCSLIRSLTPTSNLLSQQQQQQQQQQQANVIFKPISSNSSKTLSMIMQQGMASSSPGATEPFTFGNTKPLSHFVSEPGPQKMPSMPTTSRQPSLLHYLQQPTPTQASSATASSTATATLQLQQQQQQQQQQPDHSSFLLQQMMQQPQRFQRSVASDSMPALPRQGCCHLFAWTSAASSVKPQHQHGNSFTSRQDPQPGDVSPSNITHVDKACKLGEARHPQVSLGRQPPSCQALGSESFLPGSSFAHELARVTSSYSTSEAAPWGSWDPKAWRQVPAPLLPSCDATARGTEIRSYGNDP
Chain of UniProt O43896 (O43896 whole entry): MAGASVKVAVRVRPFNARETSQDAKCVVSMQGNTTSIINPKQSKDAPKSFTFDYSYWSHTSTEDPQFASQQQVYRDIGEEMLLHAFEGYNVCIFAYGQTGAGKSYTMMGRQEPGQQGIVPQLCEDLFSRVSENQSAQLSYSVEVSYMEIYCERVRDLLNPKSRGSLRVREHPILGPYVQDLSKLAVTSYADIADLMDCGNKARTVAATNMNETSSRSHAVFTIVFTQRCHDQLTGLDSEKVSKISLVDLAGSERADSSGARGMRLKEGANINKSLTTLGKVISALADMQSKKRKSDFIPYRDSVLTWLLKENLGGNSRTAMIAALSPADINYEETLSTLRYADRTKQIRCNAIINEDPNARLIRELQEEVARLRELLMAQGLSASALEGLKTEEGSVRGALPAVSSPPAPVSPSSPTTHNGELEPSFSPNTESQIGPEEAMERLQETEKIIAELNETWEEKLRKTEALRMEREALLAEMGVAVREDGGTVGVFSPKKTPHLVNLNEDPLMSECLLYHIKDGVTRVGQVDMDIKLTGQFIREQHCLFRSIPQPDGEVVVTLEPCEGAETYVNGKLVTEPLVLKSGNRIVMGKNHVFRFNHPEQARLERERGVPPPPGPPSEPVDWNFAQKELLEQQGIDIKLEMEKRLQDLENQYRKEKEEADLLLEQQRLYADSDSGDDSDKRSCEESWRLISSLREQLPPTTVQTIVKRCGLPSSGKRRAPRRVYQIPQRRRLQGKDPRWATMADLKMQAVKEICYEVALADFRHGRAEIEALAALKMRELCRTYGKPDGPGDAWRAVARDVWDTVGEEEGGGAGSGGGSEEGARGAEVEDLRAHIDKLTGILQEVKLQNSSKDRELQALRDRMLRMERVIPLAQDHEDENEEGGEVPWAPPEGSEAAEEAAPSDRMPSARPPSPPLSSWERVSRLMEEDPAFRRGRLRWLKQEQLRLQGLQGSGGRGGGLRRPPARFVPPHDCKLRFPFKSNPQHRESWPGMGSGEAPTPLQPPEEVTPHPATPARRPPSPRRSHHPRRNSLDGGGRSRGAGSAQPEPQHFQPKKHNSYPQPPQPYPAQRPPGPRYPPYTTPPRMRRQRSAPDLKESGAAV

Target	thermal stability z-score (potassium arsenate)	thermal stability z-score (lipoamide; [1])	thermal stability z-score (lipoamide; arsenate co-treatment: none)
PABPC4 (UniProt Q13310)	-0.478	0.322	0.911
ERI1 (UniProt Q8IV48)	-1.14	0.0943	0.343
PAFAH2 (UniProt Q99487)	-0.363	0.543	-0.499
TTC38 (UniProt Q5R3I4)	1.01	1.43	1.43
WBP4 (UniProt O75554)	-2.19	1.32	0.617
SNRNP27 (UniProt Q8WVK2)	0.444	0.418	-0.21
ALDH6A1 (UniProt Q02252)	4.94	-0.315	0.458
LYPD3 (UniProt O95274)	-0.484	-0.113	0.0676
MAST2 (UniProt Q6P0Q8)	0.00193	-0.0733	-0.0383
ACAP2 (UniProt Q15057)	-0.178	-0.177	0.0236
MKL2 (UniProt Q9ULH7)	0.418	-0.208	-0.342
KIF1C (UniProt O43896)	-0.086	-0.00389	0.0165
SMPD2 (UniProt O60906)	-0.382	-0.297	-0.186
ATP13A1 (UniProt Q9HD20)	-0.277	-0.0204	0.186
SRP72 (UniProt O76094)	0.424	-0.316	-0.00987
PI4K2B (UniProt Q8TCG2)	-0.451	-0.541	0.209
EIF5A (UniProt P63241)	-0.005	-0.138	0.0123
PREPL (UniProt Q4J6C6)	-0.177	0.836	0.783
GNS (UniProt P15586)	-0.512	-0.0525	-0.0481
SLFN5 (UniProt Q08AF3)	-0.568	-0.884	-1.21
RCCD1 (UniProt A6NED2)	-0.297	0.452	0.179
FAM188A (UniProt Q9H8M7)	1.07	0.53	0.885
CWF19L1 (UniProt Q69YN2)	-0.198	-0.381	-0.106
TUBB3 (UniProt Q13509)	-0.447	0.871	0.131
MTPAP (UniProt Q9NVV4)	-0.28	0.621	0.936
NCAPG2 (UniProt Q86XI2)	-0.267	-0.00836	-0.0717
NKIRAS1 (UniProt Q9NYS0)	-0.0379	-0.202	-0.125
TFAP2A (UniProt P05549)	0.566	0.831	0.868

Target	thermal stability z-score (potassium arsenate)	thermal stability z-score (lipoamide; [1])	thermal stability z-score (lipoamide; arsenate co-treatment: none)
EIF2B2 (UniProt P49770)	0.643	1.07	0.55
NVL (UniProt O15381)	0.0113	-0.0288	-0.0652
FAM195A (UniProt Q9BUT9)	-0.164	0.00727	0.202
TRMT1L (UniProt Q7Z2T5)	-1.26	0.385	0.0926
FGF2 (UniProt P09038)	-1.74	-0.298	0.269
CSTB (UniProt P04080)	0.59	0.399	0.0839
ABCF2 (UniProt Q9UG63)	1.72	-0.652	-0.279
HCCS (UniProt P53701)	-0.0765	-0.0583	-0.124
HEATR5B (UniProt Q9P2D3)	-0.105	-1.25	-0.638
HDAC3 (UniProt O15379)	-0.0998	-0.0189	-0.0121
FUBP3 (UniProt Q96I24)	0.385	0.25	0.329
TMPIT|TMEM120A	-0.269	0.15	0.398
RPL27A (UniProt P46776)	-0.482	0.419	0.401
NCOA4 (UniProt Q13772)	-0.116	-0.252	0.00243
CDK5RAP3 (UniProt Q96JB5)	0.406	-0.0376	0.162
ECE2 (UniProt P0DPD6)	-0.104	-0.0621	0.0487
SLC18B1 (UniProt Q6NT16)	-0.173	-0.405	-0.045
DPP8 (UniProt Q6V1X1)	0.257	0.32	0.543
PITHD1 (UniProt Q9GZP4)	0.158	-0.537	0.337
PTCD3 (UniProt Q96EY7)	-0.0411	0.272	0.525
MAMLD1 (UniProt Q13495)	0.345	0.0249	0.146
PASK (UniProt Q96RG2)	-0.353	0.103	0.0323
CEP350 (UniProt Q5VT06)	-0.0541	-0.154	-0.182
XXYLT1 (UniProt Q8NBI6)	0.948	-0.751	-2.13
BNIP1 (UniProt Q12981)	0.0814	0.261	-0.294
DHODH (UniProt Q02127)	-0.752	0.213	0.162
SF3B2 (UniProt Q13435)	-0.135	0.498	0.403
